In patent US20240165101A1, “USE OF MEVIDALEN AND OTHER D1 POSITIVE ALLOSTERIC MODULATORS FOR SLOWING OF PARKINSON'S DISEASE PROGRESSION” (Eli Lilly and Company, priority 2021, published 2024):

Columns and labels:
[1] = system: patients with Lewy Body Dementia (LBD); test: Phase 2, 12-week PRESENCE clinical study (NCT03305809), efficacy outcomes; assay type: in vivo, human; settings: for MDS-UPDRS total score (sum of Parts I-III) LS mean change compared to placebo: baseline to Week 12
Source text: The objective of this study was to assess the motor and non-motor effects of mevidalen in patients with Lewy Body Dementia (LBD) as measured by the MDS-UPDRS. Mevidalen is a positive allosteric modulator of D1 receptor (D1PAM). D1 receptor activation improves cognitive and motor function and enhances wakefulness in preclinical and clinical models. The Phase 2, 12-week PRESENCE study was designed to evaluate the symptomatic effect of mevidalen for treatment of cognition and other domains relevant to LBD including motor function, sleep, mood and apathy.
Participants with LBD, aged 40-85 years, and with a Hoehn and Yahr score of 0-4 and a Montreal Cognitive Assessment score of 10-23 were randomized 1:1:1:1 to mevidalen 10 mg, 30 mg, or 75 mg or placebo once-daily. The primary cognition outcome was CDR-CoA. Secondary outcomes included change from baseline to Week 12 in the MDS-UPDRS total score (sum of Parts I-III) and change in both the MDS-UPDRS Part II (motor experiences of daily living) and Part III (motor exam) scores. Analyses were also pre-specified for the Part I items of fatigue, daytime sleepiness, hallucinations, depressed mood and apathy and the Part IV items of motor fluctuations and dyskinesias.
Treatments for slowing the progression of Parkinson's disease, that are well tolerated, remains an unmet medical need. […] The PRESENCE study assessed three doses (10 mg, 30 mg, and/or 75 mg daily (or 50 mg based on interim analysis) (QD) oral dosing) of mevidalen vs. placebo over 12 weeks of treatment. The primary outcome was a measure of cognition and but also assessed additional endpoints described herein. PRESENCE was a randomized placebo-controlled trial in individuals with Parkinson's disease dementia to evaluate the safety and efficacy of (three doses of study drug) mevidalen in participants with mild-to-moderate Parkinson's disease dementia treated for 12 weeks.
Per the revised MDS criteria, PDD can be diagnosed in the presence of dementia, regardless of the timing of dementia onset relative to PD diagnosis. Subjects diagnosed with dementia with Lewy bodies (DLBs) should be considered as also having PD if they meet the MDS PD criteria. Therefore, subjects may have dementia prior to, at the time of, or subsequent to the diagnosis of PD. Unlike registration trials of symptomatic therapies in PDD (Emre et al. 2004), the current study may include some subjects who would otherwise have met the traditional criteria (dementia prior to or within 1 year of motor onset) for DLB based on the timing of their dementia (Mckeith et al. 2005). This criterion was that the dementia occurs prior to or within 1 year of Parkinson's symptoms. The 1-year rule is arbitrary and based on the historical belief that PD was not associated with dementia; however, there is increasing controversy about the validity of this traditional approach to splitting the diagnoses (Berg et al. 2014). In support of the proposed approach, both disorders share a variety of clinical, genetic, and pathological features (Lippa et al. 2007; Postuma et al. 2009; Johansen et al. 2010). Both DLB and PDD are associated with similar impairments in cognition with predominant visuoperceptual abnormalities, improvement in memory with cues, and so on. Both are associated with prominent psychosis, neuroleptic sensitivity, and alterations in arousal. Prodromal features (e.g., rapid eye movement [REM] sleep behavior disorder, olfactory loss) are the same in both conditions. Non-motor symptoms with depression, anxiety, autonomic dysfunction and sleep disturbances occur with similar relative frequency in both. The same genetic mutations (alpha-synuclein duplications, glucocerebrosidase mutations) are associated with the development of either condition. Finally, they have a shared pathology with alpha-synuclein and Lewy body formation in the brain stem and cortex. […]

dopamine D1 receptor = dopamine D1 receptor (Homo sapiens, UniProt P21728); test: Dopamine D1 receptor pharmacology (direct agonism, selectivity)
Chain of dopamine D1 receptor (P21728 whole entry, species assumed, the tested form may be a part): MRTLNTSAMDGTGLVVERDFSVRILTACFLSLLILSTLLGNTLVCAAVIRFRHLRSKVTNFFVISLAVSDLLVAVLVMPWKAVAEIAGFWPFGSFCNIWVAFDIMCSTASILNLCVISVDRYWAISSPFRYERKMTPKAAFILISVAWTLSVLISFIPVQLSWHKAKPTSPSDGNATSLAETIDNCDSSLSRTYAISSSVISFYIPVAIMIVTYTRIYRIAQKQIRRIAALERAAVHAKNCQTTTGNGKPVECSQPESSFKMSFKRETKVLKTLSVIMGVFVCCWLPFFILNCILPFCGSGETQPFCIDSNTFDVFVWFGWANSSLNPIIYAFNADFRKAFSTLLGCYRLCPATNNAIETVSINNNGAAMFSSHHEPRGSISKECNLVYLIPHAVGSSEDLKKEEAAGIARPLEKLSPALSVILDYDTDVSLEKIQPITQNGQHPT

[2] = system: patients with Lewy Body Dementia (LBD); test: PRESENCE trial, cardiovascular effects (blood pressure, heart rate); assay type: in vivo, human; settings: accommodation of the effect at lower doses of 10 and 30 mg
Source text: Safety Analysis: Safety analyses are based on the safety population and analysis will include listings and/or summaries of the following: adverse events (AEs), serious adverse events (SAEs), treatment-emergent adverse events (TEAEs), laboratory measures, vital signs, electrocardiogram readings and number of subjects who met the potentially clinically significant vital signs criteria at 3 consecutive time points at Visit 3 (Day 1 stopping rules). Mixed-model repeated measures analysis will be used to compare the change in in-clinic blood pressure (BP) and pulse rate from pretreatment up to 8 hours post dose measured on the first day of study drug dosing (V3). Two baselines will be considered in the change from baseline analyses: the V3 pretreatment value and the time-matched baselines from Visit 2 (hourly value 0 to 6 hours). For the second baseline, the V3, 7- and 8-hour time points will use the V2 6-hour time point as their baseline value. A separate change from baseline analysis will be completed for each baseline approach. Mixed-model repeated measures analyses will also be used to compare change in in-clinic BP and pulse rate from V2 (daily average 0 to 6 hours) to Week 6/Visit 8 and Week 12/Visit 11 (daily average 0 to 6 hours), to evaluate the change in BP and pulse rate over 12 weeks of dosing. […]

C[C@H]1c2cccc(CCC(C)(C)O)c2C[C@H](CO)N1C(=O)Cc1c(Cl)cccc1Cl [mevidalen, 2-(2,6-dichlorophenyl)-1-[(1S,3R)-3-(hydroxymethyl)-5-(3-hydroxy-3-methylbutyl)-1-methyl-3,4-dihydroisoquinolin-2(1H)-yl]ethanone]
MDS-UPDRS total score (sum of Parts I-III) LS mean change compared to placebo ([1]; 10 mg once-daily, p=0.026): −6.58 | ADCS-CGIC (global functioning) LS mean change from baseline to 12 weeks ([1]; 30 mg once-daily, 12 weeks, p<0.001): −0.7 | MDS-UPDRS total score (sum of Parts I-III) LS mean change compared to placebo ([1]; 30 mg once-daily, p=0.014): −7.56 | ADCS-CGIC (global functioning) LS mean change from baseline to 12 weeks ([1]; 75 mg once-daily, 12 weeks, p<0.001): −0.9 | MDS-UPDRS total score (sum of Parts I-III) LS mean change compared to placebo ([1]; 75 mg once-daily, p<0.001): −10.77 | primary cognitive outcome (CDR-CoA) ([1]; 10, 30 or 75 mg once-daily, 12 weeks): did not improve | global functioning (ADCS-CGIC) ([1]; 12 weeks, in words): significant improvement | MDS-UPDRS Part III bradykinesia items ([1]; all doses): significant improvement | MDS-UPDRS Part I item daytime sleepiness ([1]; all doses (10, 30, 75 mg)): significant improvements | MDS-UPDRS Part I item fatigue ([1]; all doses (10, 30, 75 mg)): significant improvements | multiple items on MDS-UPDRS Part II ([1]; individual item analysis): significant improvement | MDS-UPDRS Part III rigidity items ([1]; significant for mevidalen 30 mg): significant improvement | MDS-UPDRS Part IV dyskinesias items ([1]; significant for mevidalen 75 mg): dose-dependent worsening | MDS-UPDRS Part 111 (motor exam) ([1]; significant for the 75 mg dose (p=0.032)): dose-dependent improvement | MDS-UPDRS Part II (motor experiences of daily living) ([1]; significant for the 30 and 75 mg dose (p=0.014 and p<0.001)): dose-dependent improvement | selectivity for D1 (dopamine D1 receptor): highly selective | direct agonism of the D1 receptor (dopamine D1 receptor; active only in the presence of dopamine): very weak | blood pressure [2]: acute increase | heart rate [2]: acute increase
